Test results from patent publication EP0979818A1, “BENZOIC ACID COMPOUNDS AND MEDICINAL USE THEREOF” (YOSHITOMI PHARMACEUTICAL INDUSTRIES, LTD., priority 1997, dated 1998).
Where two headings read alike, the source gives them in different places.

How the values were obtained:
[1] = biological target: isolated guinea pig ascending colon (Cavia porcellus, UniProt O70528); experiment: contraction of the isolated guinea pig ascending colon; format: cell-based
Protocol: Male Hartley guinea pig was killed by a blow, ascending colon was taken from it and longitudinal muscle was separated. About 3 cm longitudinal muscle segment was suspended in 10 ml of a Tyrode solution with the load of 1 g. Tyrode solution contained methysergide (1 µM) and granisetron (1 µM) to inhibit responses mediated by 5-HT1, 5-HT2 and 5-HT3 receptors. Tyrode solution was maintained at 37°C and ventilated with a mixed gas of O2 (95%) and CO2 (5%). The contraction was isotonically measured via isotonic transducer. After an equilibrium period of about 30 minutes, the contraction by methacholine (30 µM) was measured two times at 15 minute intervals. Twenty minutes later, Y-36912 was added into the bath and the contraction was measured in the presence of a solvent or 1-methyl-1H-indole-3-carboxylic acid · 1-(2-methylsulfonylaminoethyl)-pyperidin-4-ylmethyl ester (hereinafter to be referred to as GR113808, 10nM), which is 5-HT4 receptor antagonist. The time of pretreatment with the solvent or GR113808 was 10 minutes. To avoid tachyphylaxis, the contraction induced by one concentration per preparation was measured. The contraction in the presence of a solvent or GR113803 was measured using a preparation from the same animal. The contraction effect of Y-36912 was measured as a percentage of responses to the second contraction by methacholine. […]

5-HT4 receptor = biological target: T1, 5-HT4 receptor (Cavia porcellus, UniProt O70528); experiment: 5-HT4 receptor binding test; settings: guinea pig striatum crude synapse membrane, [3H]GR113808 0.1 nM, 37°C; read-out: Affinity for receptor (Ki value, nM) 5-HT4
T1 construct: Crude synapse membrane sample was prepared from guinea pig striatum; from tissue; host or cells: guinea pig striatum, crude synaptic membranes
Protocol: According to the method of C.J. Grossman et al. [British Journal of Pharmacology, vol. 109, pp. 618-624 (1993)1, a 5-HT4 receptor binding test was run using, as a tracer ligand, 1-methyl-1H-indole-3-carboxylic acid · 1-(2-methylsulfonylaminoethyl)-piperidin-4-ylmethyl ester substituted by tritium (hereinafter to be referred to as [^3H]GR113808). Crude synapse membrane sample was prepared from guinea pig striatum, suspended in 50 mM HEPES buffer (pH 7.4) and used for testing. Y-36912 having several different concentrations and [^3H]GR113808 (final concentration 0.1 nM) were added to this suspension and allowed to react at 37°C. Thirty minutes later, the reaction mixture was filtered by suction with cell harvester. The filter was washed with 50 mM HEPES buffer, and the radioactivity on the filter was counted by liquid scintillation counter. The non-specific binding was determined in the presence of 1µM GR113808. The concentration of Y-36912 necessary for 50% inhibition (IC50) was determined from graph and convened to binding inhibition constant (Ki value).

5-HT3 receptor = biological target: T2, 5-HT3 receptor (Rattus norvegicus, UniProt P35563); experiment: 5-HT3 receptor binding test; settings: rat cerebral cortex crude synapse membrane, [3H]granisetron 1.0 nM, 25°C; value marked * is IC50, not Ki; read-out: Affinity for receptor 5-HT3 (* shows IC50)
T2 construct: Crude synapse membrane sample was prepared from rat cerebral cortex; from tissue; host or cells: rat cerebral cortex, crude synaptic membranes
T2 sequence (P35563 24-483): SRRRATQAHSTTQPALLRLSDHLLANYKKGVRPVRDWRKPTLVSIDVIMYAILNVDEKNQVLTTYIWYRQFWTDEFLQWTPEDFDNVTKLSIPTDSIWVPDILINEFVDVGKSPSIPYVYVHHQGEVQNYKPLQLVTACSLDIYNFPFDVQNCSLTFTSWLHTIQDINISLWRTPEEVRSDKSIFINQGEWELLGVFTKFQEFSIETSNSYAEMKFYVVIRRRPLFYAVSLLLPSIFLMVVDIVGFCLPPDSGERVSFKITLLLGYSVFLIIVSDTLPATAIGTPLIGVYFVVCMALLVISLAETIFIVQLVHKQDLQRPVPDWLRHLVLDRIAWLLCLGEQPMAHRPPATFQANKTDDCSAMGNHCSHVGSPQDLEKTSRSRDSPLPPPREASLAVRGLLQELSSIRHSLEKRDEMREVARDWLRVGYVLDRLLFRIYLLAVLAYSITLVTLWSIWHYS
Protocol: According to the method of Nelson and Thomas [Biochemical Pharmacology, vol. 38, pp. 1693-1695 (1989)], a 5-HT3 receptor binding test was run using, as a tracer ligand, endo-1-methyl-N-(9-methyl-9-azabicyclo[3.3.1]non-3-yl)-1H-indazole-3-carboxamide substituted by tritium (hereinafter to be referred to as [^3H]granisetron). Crude synapse membrane sample was prepared from rat cerebral cortex, suspended in 50 mM HEPES buffer (pH 7.4) and used for testing. Y-36912 having several different concentrations and [^3H]granisetron (final concentration 1.0 nM) were added to this suspension and allowed to react at 25°C. Thirty minutes later, the reaction mixture was filtered by suction with cell harvester. The filter was washed with 50 mM Tris buffer (pH 7.4), and the radioactivity on the filter was counted using liquid scintillation counter or β-plate. The non-specific binding was determined in the presence of 1 µM tropisetron. The concentration of Y-36912 necessary for 50% inhibition (IC50) was determined from graph and converted to binding inhibition constant (Ki value).

dogs = experiment: promotion of postprandial gastrointestinal motility in dogs without anesthesia; format: in vivo; settings: for Difference of motility index (g·min) Colon / Difference of motility index (g·min) Stomach: Mean ± S.E.; for minimal effective dose: Canis lupus familiaris, iv
Protocol: According to the method of Ito et al. [Journal of Smooth Muscle Research, vol. 13, pp. 33-43 (1976)], male and female adult mongrel dogs were subjected to laparotomy under pentobarbital anesthesia, and force transducer was sutured to the serous membrane of various sites of gastrointestinal tract in the direction of circular muscle. After about two weeks' recovery period, postprandial gastrointestinal motility was measured in vigilance. The results are shown in Table 3 as the difference in motility index (g·min) between before and after administration of Y-36912. Y-36912 was administered intravenously.

[2] = evaluation of bioavailability in rats; format: in vivo; settings: rat, po; female SD rats, 3 mg/kg i.v. and 30 mg/kg p.o., from plasma AUC
Protocol: Female SD rats (4 per group) were administered with 3 mg/kg (i.v.) and 30 mg/kg (p.o.) of Y-36912. The blood was taken with the passage of time, and the concentration of the drug in plasma was measured with high performance liquid chromatography. […] In the formula, AUC means area under the plasma concentration-time curve. (AUC by oral administration)/(AUC by intravenous administration)X(Dose of intravenous administration)/(Dose of oral administration)X 100(%) [formula]

[3] = measurement of absorption by small intestine in rat; format: in vivo; settings: small intestine loop, 5 mg/kg, male SD rats, intestinal loop, 5 mg/10 ml in 5% glucose, 10 ml/kg, read-out: absorption (absorption ratio by small intestine loop)
Protocol: Male SD rats (3 per group) fasted overnight were subjected to laparotomy under ether anesthesia, and the upper part of small intestine was ligated to form a loop (15-20 cm in length). The drug was dissolved in 5% glucose to the drug concentration of 5 mg/10 ml, and 10 ml/kg thereof was injected into the loop. At 2 hours from the drug injection, the loop was removed, washed with 100 ml of 0.1 N hydrochloric acid-methanol (3:7), and the drug concentration was determined by high performance liquid chromatography. The absorption ratio was calculated according to the following formula. The absorption of Y-36912 was 60.5±13.7 % (Injected amount of drug (mg) - drug concentration in loop (mg/ml) x 100 (ml))/(Injected amount of drug (mg))x 100(%) [formula]

mice = experiment: stimulation of defecation in mice; format: in vivo; settings: for Number (of feces) / Wet weight (of feces): 2 hours, Mean ± S.E.; for Promotion(%) of number of feces / Promotion(%) of wet weight of feces: versus vehicle
Protocol: Male ICR mice were subcutaneously administered with Y-36912 after adaptation to experimental surroundings for thirty minutes. The number and wet weight of feces excreted in 2 hours from immediately after administration were measured.

guinea pig = experiment: promotion of transit in large intestine in guinea pig; format: in vivo; settings: guinea pigs; for Ratio of transit in large intestine (%): Evans blue, 1 hour, Mean ± S.E.; for Promotion (%) of transit in large intestine: versus vehicle
Protocol: Male Hartley guinea pigs were subjected to laparotomy under ether anesthesia, and a silicone tube was inserted into the beginning of ascending colon and fixed there. The other end was passed under the skin to be exposed from the back and sutured. At day 5 postoperation, Y-36912 was administered orally and Evans blue solution was injected into the colon through the silicon tube. One hour later, the large intestine was removed, and the entire length of the large intestine and the length of the transit of the Evans blue solution were measured. Evans blue transit ratio relative to the entire length of the large intestine (100 %) was calculated.

rats = experiment: promotion of gastric emptying in rats; format: in vivo; settings: for Number of pellets (remaining in stomach): female Wistar rats, 1 hour after pellets, Mean ± S.E.; for Promotion (%) of gastric emptying: versus vehicle
From the text: Barium pellets (ca. 1 mm diameter) coated with polystyrene was intragastrically administered to female Wistar rats. One hour later, stomach was removed, and the remaining pellets were counted. Y-36912 was orally administered one hour before administration of the pellets.

SD rats [4] = experiment: toxicity testing, single oral dose in rats; format: in vivo; settings: four female SD rats, 750 mg/kg
Protocol: There was no death when four female SD rats were administered orally with Y-36912 at a dose of 750 mg/kg.

SD rats [5] = experiment: toxicity testing, repeated administration for 10 days in rats; format: in vivo; settings: female and male SD rats, repeated 30 mg/kg for 10 days

Chain of isolated guinea pig ascending colon (O70528 whole entry): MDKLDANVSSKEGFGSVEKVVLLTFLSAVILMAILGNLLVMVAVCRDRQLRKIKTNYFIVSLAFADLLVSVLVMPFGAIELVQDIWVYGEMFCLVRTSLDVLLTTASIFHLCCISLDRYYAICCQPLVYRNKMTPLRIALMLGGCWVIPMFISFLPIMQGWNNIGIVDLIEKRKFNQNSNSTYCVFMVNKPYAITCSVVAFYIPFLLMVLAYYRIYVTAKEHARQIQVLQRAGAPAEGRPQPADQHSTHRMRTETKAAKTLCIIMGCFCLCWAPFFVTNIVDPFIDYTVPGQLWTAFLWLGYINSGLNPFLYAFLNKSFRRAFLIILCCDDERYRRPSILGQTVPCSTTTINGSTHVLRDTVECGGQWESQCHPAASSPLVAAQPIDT
T1 sequence (O70528 whole entry): as above

Cn1cc(C(=O)OCC2CCN(CCNS(C)(=O)=O)CC2)c2ccccc21 [GR113808, 1-methyl-1H-indole-3-carboxylic acid · 1-(2-methylsulfonylaminoethyl)-pyperidin-4-ylmethyl ester, reference compound]
pKB, antagonism of GR113808 to contraction of Y-36912 ([1]; GR113808 10 nM, 10 minutes pretreatment, agonist Y-36912): 8.8

COc1cc(N)c(Cl)cc1C(=O)NCC1CCN(CCCS(=O)(=O)Cc2ccccc2)CC1 [Y-36912, 4-amino-5-chloro-2-methoxy-N-((1-(3-benzylsulfonylpropyl)piperidin-4-yl)methyl)benzamide]
Ki (5-HT4 receptor): 1.5 nM | IC50 (5-HT3 receptor): > 1000 nM | EC50 ([1]; longitudinal muscle, methysergide 1 µM and granisetron 1 µM present, relative to methacholine 30 µM contraction, read-out: Contraction effect on the isolated ascending colon (EC50 value)): 10.8 nM | Difference of motility index (g·min) Colon (dogs; 0.01 mg/kg i.v.): 27.1 ± 6.8 g·min | Difference of motility index (g·min) Stomach (dogs; 0.01 mg/kg i.v.): 41.3 ± 35.4 g·min | Difference of motility index (g·min) Colon (dogs; 0.03 mg/kg i.v.): 28.3 ± 8.5 g·min | Difference of motility index (g·min) Stomach (dogs; 0.03 mg/kg i.v.): 65.1 ± 38.1 g·min | Difference of motility index (g·min) Colon (dogs; 0.1 mg/kg i.v.): 58.2 ± 11.9 g·min | Difference of motility index (g·min) Stomach (dogs; 0.1 mg/kg i.v.): 60.5 ± 18.1 g·min | minimal effective dose (dogs; read-out: dose that increased colonic (lower gastrointestinal) motility): 0.1 mg/kg | minimal effective dose (dogs; read-out: dose that increased gastric (upper gastrointestinal) motility): ≥ 0.03 mg/kg | bioavailability [2]: 85.2% | Fa at 2 h [3]: 60.5 ± 13.7% | Number (of feces) (mice; 0.03 mg/kg s.c): 5.4 ± 0.7 | Wet weight (of feces) (mice; 0.03 mg/kg s.c): 78.2 ± 8.6 | Promotion(%) of number of feces (mice; 0.03 mg/kg s.c): 59% | Promotion(%) of wet weight of feces (mice; 0.03 mg/kg s.c): 38% | Number (of feces) (mice; 0.1 mg/kg s.c): 6.5 ± 0.8 | Wet weight (of feces) (mice; 0.1 mg/kg s.c): 95.7 ± 10.6 | Promotion(%) of number of feces (mice; 0.1 mg/kg s.c): 91% | Promotion(%) of wet weight of feces (mice; 0.1 mg/kg s.c): 69% | Number (of feces) (mice; 0.3 mg/kg s.c): 6.2 ± 0.8 | Wet weight (of feces) (mice; 0.3 mg/kg s.c): 94.7 ± 10.3 | Promotion(%) of number of feces (mice; 0.3 mg/kg s.c): 82% | Promotion(%) of wet weight of feces (mice; 0.3 mg/kg s.c): 68% | Number (of feces) (mice; 1 mg/kg s.c): 5.4 ± 0.5 | Wet weight (of feces) (mice; 1 mg/kg s.c): 97.7 ± 12.5 | Promotion(%) of number of feces (mice; 1 mg/kg s.c): 59% | Promotion(%) of wet weight of feces (mice; 1 mg/kg s.c): 73% | minimal effective dose (mice; Mus musculus, sc, 2 h, s.c., read-out: dose showing significant promotion of defecation): ≥ 0.1 mg/kg | Ratio of transit in large intestine (%) (guinea pig; 0.1 mg/kg p.o.): 57.0 ± 7.0% | Promotion (%) of transit in large intestine (guinea pig; 0.1 mg/kg p.o.): 9% | Ratio of transit in large intestine (%) (guinea pig; 0.3 mg/kg p.o.): 70.9 ± 7.9% | Promotion (%) of transit in large intestine (guinea pig; 0.3 mg/kg p.o.): 35% | Ratio of transit in large intestine (%) (guinea pig; 1 mg/kg p.o.): 77.2 ± 6.4 % | Promotion (%) of transit in large intestine (guinea pig; 1 mg/kg p.o.): 47% | Ratio of transit in large intestine (%) (guinea pig; 3 mg/kg p.o.): 80.1 ± 5.8 % | Promotion (%) of transit in large intestine (guinea pig; 3 mg/kg p.o.): 53% | minimal effective dose (guinea pig; Cavia porcellus, po, 1 h, p.o., read-out: dose that significantly accelerated transit in large intestine): ≥ 1 mg/kg | Number of pellets (remaining in stomach) (rats; 0.1 mg/kg p.o.): 21.1 ± 2.8 | Promotion (%) of gastric emptying (rats; 0.1 mg/kg p.o., rats): 25% | Number of pellets (remaining in stomach) (rats; 0.3 mg/kg p.o.): 18.8 ± 3.0 | Promotion (%) of gastric emptying (rats; 0.3 mg/kg p.o., rats): 33% | Number of pellets (remaining in stomach) (rats; 1 mg/kg p.o.): 19.5 ± 3.1 | Promotion (%) of gastric emptying (rats; 1 mg/kg p.o., rats): 31% | Number of pellets (remaining in stomach) (rats; 3 mg/kg p.o.): 13.4 ± 1.8 | Promotion (%) of gastric emptying (rats; 3 mg/kg p.o., rats): 52% | effect on gastric emptying (rats; doses of 0.3 mg/kg and 3 mg/kg p.o., rats): significantly accelerated gastric emptying | death (SD rats [4]): no death | death (SD rats [5]): no animal died
